Measured values reported in ChEMBL document CHEMBL5154712, “Activators of the Anticipatory Unfolded Protein Response with Enhanced Selectivity for Estrogen Receptor Positive Breast Cancer” (J Med Chem, 2022).
Calls of active or inactive are those of the source. No cut-off for these calls is given here.

Key:
[1] = system: MDA-MB-231; assay: Anticancer activity against ERalpha negative human MDA-MB-231 cells assessed as cell growth inhibition incubated for 168 hrs by alamar blue assay; type: functional, cell-based; conditions: MDA-MB-231, 168 h
[2] = Oral bioavailability in CD-1 mouse at 40 mg/kg by LC-MS/MS analysis; type: ADME, organism-based; conditions: in vivo
[3] = Toxicity in iv dosed CD-1 mouse assessed as maximum tolerated dose administered as single dose; type: organism-based; conditions: in vivo
[4] = system: HCT-116; assay: Anticancer activity against ERalpha negative human HCT-116 cells assessed as cell growth inhibition incubated for 72 hrs by alamar blue assay; type: functional, cell-based; conditions: HCT-116, 72 h
[5] = MRT in CD-1 mouse at 20 mg/kg, iv by LC-MS/MS analysis; type: ADME, organism-based; conditions: CD-1, mouse, in vivo, read-out: MRT
[6] = Half life in CD-1 mouse at 20 mg/kg, iv by LC-MS/MS analysis; type: ADME, organism-based; conditions: CD-1, mouse, in vivo
[7] = system: MCF7; assay: Anticancer activity against ERalpha positive human MCF7 cells assessed as cell growth inhibition incubated for 72 hrs by alamar blue assay; type: functional, cell-based; conditions: MCF7, 72 h
[8] = Selectivity ratio of IC50 for human HCT-116 cells to IC50 for human MCF7 cells; type: functional
[9] = system: MDA-MB-231; assay: Anticancer activity against ERalpha negative human MDA-MB-231 cells assessed as cell growth inhibition incubated for 72 hrs by alamar blue assay; type: functional, cell-based; conditions: MDA-MB-231, 72 h
[10] = AUC in CD-1 mouse at 20 mg/kg, iv by LC-MS/MS analysis; type: ADME, organism-based; set-up: dose 20 mg/kg, route iv; conditions: CD-1, mouse, in vivo, read-out: AUC
[11] = Cmax in CD-1 mouse at 20 mg/kg, iv by LC-MS/MS analysis; type: ADME, organism-based; set-up: dose 20 mg/kg, route iv; conditions: CD-1, mouse, in vivo, read-out: Cmax
[12] = system: HCT-116; assay: Anticancer activity against ERalpha negative human HCT-116 cells assessed as cell growth inhibition incubated for 168 hrs by alamar blue assay; type: functional, cell-based; conditions: HCT-116, 168 h
[13] = Toxicity in athymic nude mouse xenografted with human MCF7 cells assessed as change in body weight at 5 mg/kg, iv administered once a week for three doses administered for 14 days; type: organism-based; conditions: in vivo, 336 h, time 14 day
[14] = system: T47D; assay: Anticancer activity against human T47D cells harbouring ERalphaD538G mutant assessed as cell growth inhibition incubated for 24 hrs by alamar blue assay; type: functional, cell-based
[15] = system: MCF7; assay: Anticancer activity against human MCF7 cells assessed as reduction in cell viability incubated for 24 hrs in presence of 10% CD-FBS and 17-beta-estradiol by alamar blue assay; type: functional, cell-based
[16] = system: MCF7; assay: Anticancer activity against human MCF7 cells assessed as cell growth inhibition incubated for 24 hrs by alamar blue assay; type: functional, cell-based; conditions: MCF7, 24 h
[17] = Toxicity in po dosed CD-1 mouse assessed as maximum tolerated dose administered as single dose; type: organism-based; conditions: in vivo
[18] = system: MDA-MB-436; assay: Anticancer activity against ERalpha negative human MDA-MB-436 cells assessed as cell growth inhibition incubated for 24 hrs by alamar blue assay; type: functional, cell-based; conditions: MDA-MB-436, 24 h
[19] = system: MDA-MB-231; assay: Anticancer activity against ERalpha negative human MDA-MB-231 cells assessed as cell growth inhibition incubated for 24 hrs by alamar blue assay; type: functional, cell-based; conditions: MDA-MB-231, 24 h
[20] = system: T47D; assay: Anticancer activity against ERalpha positive human T47D cells assessed as cell growth inhibition incubated for 24 hrs by alamar blue assay; type: functional, cell-based
[21] = system: HCT-116; assay: Anticancer activity against ERalpha negative human HCT-116 cells assessed as cell growth inhibition incubated for 24 hrs by alamar blue assay; type: functional, cell-based; conditions: HCT-116, 24 h
[22] = Stability of the compound in simulated gastric fluid assessed as half life measured upto 120 mins by LC-MS/MS analysis; type: ADME
[23] = Clearance in CD-1 mouse at 20 mg/kg, iv by LC-MS/MS analysis; type: ADME, organism-based; conditions: in vivo
[24] = system: T47D; assay: Anticancer activity against human T47D cells harbouring ERalphaY537S mutant assessed as cell growth inhibition incubated for 24 hrs by alamar blue assay; type: functional, cell-based
[25] = system: HT-29; assay: Anticancer activity against ERalpha negative human HT-29 cells assessed as cell growth inhibition incubated for 72 hrs by alamar blue assay; type: functional, cell-based; conditions: HT-29, 72 h
[26] = system: MDA-MB-436; assay: Anticancer activity against ERalpha negative human MDA-MB-436 cells assessed as cell growth inhibition incubated for 72 hrs by alamar blue assay; type: functional, cell-based; conditions: MDA-MB-436, 72 h
[27] = Selectivity ratio of IC50 for human HT-29 cells to IC50 for human MCF7 cells; type: functional
[28] = Stability of the compound in simulated gastric fluid assessed as compound remaining measured after 120 mins by LC-MS/MS; type: ADME; conditions: read-out: Stability
[29] = Toxicity in iv dosed Sprague-Dawley rat assessed as maximum tolerated dose administered as single dose; type: organism-based; conditions: in vivo
[30] = Selectivity ratio of IC50 for human MDA-MB-436 cells to IC50 for human MCF7 cells; type: functional
[31] = system: MCF7; assay: Antitumor activity against human MCF7 cells xenografted in athymic nude mouse assessed as reduction in tumor growth at 5 mg/kg, iv administered once a week for three doses administered for 14 days; type: functional, organism-based; conditions: time 14.0 day
[32] = system: MCF7; assay: Anticancer activity against human MCF7 cells assessed as reduction in cell viability incubated for 24 hrs in presence of 10% CD-FBS by alamar blue assay; type: functional, cell-based
[33] = Volume of distribution at steady state in CD-1 mouse at 20 mg/kg, iv by LC-MS/MS analysis; type: ADME, organism-based; conditions: CD-1, mouse, in vivo, read-out: Vdss
[34] = system: HT-29; assay: Anticancer activity against ERalpha negative human HT-29 cells assessed as cell growth inhibition incubated for 24 hrs by alamar blue assay; type: functional, cell-based; conditions: HT-29, 24 h
[35] = Selectivity ratio of IC50 for human MDA-MB-231 cells to IC50 for human MCF7 cells; type: functional

O=C1Nc2c(C(F)(F)F)cccc2[C@]1(c1ccc(O)cc1)C1CCC(F)(F)CC1
IC50 [1]: 33 µM | bioavailability [2]: 6% | MTD [3]: 95 mg/kg | IC50 [4]: 55 µM | MRT [5]: 54 min | half-life [6]: 18 min | IC50 [7]: 0.017 µM | Ratio IC50 [8]: 3200 | IC50 [9]: 55 µM | AUC [10]: 6300 ng·h/mL | Cmax [11]: 14700 ng/mL | IC50 [12]: 42 µM | Activity [13]: Non-Toxic | IC50 [14]: 0.009 µM | Activity [15]: Active | IC50 [16]: 0.017 µM | MTD [17]: > 200 mg/kg | IC50 [18]: 64 µM | IC50 [19]: 55 µM | IC50 [20]: 0.016 µM | IC50 [21]: 55 µM | half-life [22]: 56 min | clearance [23]: 52 mL/min/kg | IC50 [24]: 0.007 µM | IC50 [25]: 27 µM | IC50 [26]: 55 µM | Ratio IC50 [27]: 1600 | remaining at 2 h [28]: 13% | MTD [29]: > 50 mg/kg | Ratio IC50 [30]: 3200 | Activity [31]: Active | Activity [32]: Active | Vd [33]: 2.8 L/kg | IC50 [34]: 33 µM | Ratio IC50 [35]: 1900
